Experimental findings from ChEMBL document CHEMBL1201862, “PubChem BioAssay data set” (2004) are described below.

Molecules are shown by their SMILES.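 96-well plates; 48 h exposure; 5 concentrations. Endpoints by linear interpolation between flanking doses. Not reached: highest tested concentration assigned. The concentration for 50% growth inhibition is given as GI50.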 Active and inactive are the calls of the source. Rule as the data show it: active = GI50 up to about 1.1 µM and inactive = higher.

Some test systems named below: HOP-18; XF498; DLD-1; DMS-114; KM-20L2; RXF 631; LXFL 529; M19-MEL; SNB-78.
Holding throughout (assay): NCI tumour cell line growth inhibition, 48 h

As to `CC(C)N(C(=O)C12C3C4C1C1C4(C#N)C3C12C(=O)O)C(C)C` (stereo not drawn), the GI50 in the test on HOP-18, in the test on XF498, in the test on DLD-1, with DMS-114, with KM-20L2 and in the test with RXF 631 was > 100 µM (inactive) in each case. Further, the GI50 with LXFL 529, in the test on M19-MEL and with SNB-78 was > 100 µM (inactive) in each case.

For `C/C(=N\NC(=S)N1CCCCCC1)c1ccccn1`, the GI50 with HOP-18 is 0.123 µM (active); with XF498, 0.0014 µM (active); in the test on DLD-1 it was < 0.001 µM (active); with DMS-114, < 0.001 µM (active); in the test with KM-20L2 it was < 0.001 µM (active); in the test with RXF 631, 0.0386 µM (active). Also, the GI50 was < 0.001 µM (active) with LXFL 529, 0.0883 µM (active) in the test on M19-MEL and 0.741 µM (active) in the test with SNB-78.
